For one assay, the species on record is Homo sapiens. In words: Inhibition of clathrin at 100 uM.
The nature of assay [1]: Inhibition of sheep dynamin 1 GTPase activity after 30 mins by malachite-green method. Further details: species or system Ovis aries.
The target in another assay is T1, Dynamin-1 (Homo sapiens) (UniProt Q05193).
T1 sequence (whole entry): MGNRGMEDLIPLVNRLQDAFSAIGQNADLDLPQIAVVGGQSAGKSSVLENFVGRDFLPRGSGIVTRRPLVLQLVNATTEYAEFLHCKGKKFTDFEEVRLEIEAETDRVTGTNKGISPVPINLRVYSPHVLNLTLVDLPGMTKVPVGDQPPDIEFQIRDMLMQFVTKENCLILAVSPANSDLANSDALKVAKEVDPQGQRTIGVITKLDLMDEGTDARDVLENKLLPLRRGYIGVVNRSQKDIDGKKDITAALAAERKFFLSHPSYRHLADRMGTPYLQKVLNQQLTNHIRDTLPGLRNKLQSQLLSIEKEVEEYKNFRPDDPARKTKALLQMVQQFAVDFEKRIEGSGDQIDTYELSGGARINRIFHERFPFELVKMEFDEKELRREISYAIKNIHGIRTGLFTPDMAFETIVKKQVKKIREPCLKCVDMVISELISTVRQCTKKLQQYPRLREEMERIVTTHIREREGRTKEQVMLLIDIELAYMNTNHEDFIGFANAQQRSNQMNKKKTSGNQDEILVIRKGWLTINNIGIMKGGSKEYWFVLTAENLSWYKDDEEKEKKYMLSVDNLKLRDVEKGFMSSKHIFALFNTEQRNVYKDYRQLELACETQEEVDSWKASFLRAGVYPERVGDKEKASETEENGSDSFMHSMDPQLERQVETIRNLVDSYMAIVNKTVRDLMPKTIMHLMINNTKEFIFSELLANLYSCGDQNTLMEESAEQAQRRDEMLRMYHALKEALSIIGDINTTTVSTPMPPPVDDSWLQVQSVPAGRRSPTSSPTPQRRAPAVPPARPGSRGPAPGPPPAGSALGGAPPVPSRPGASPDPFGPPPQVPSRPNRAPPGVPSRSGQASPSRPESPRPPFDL
Nature of the assay: Inhibition of dynamin1-mediated endocytosis in human U2OS cells assessed as inhibition of Texas red-Tf uptake incubated up to 300 uM for 30 mins prior to Texas red-Tf addition measured after 8 mins by receptor-mediated endocytosis assay. In kind it is cell-based.

The source made the active and inactive calls. Unless noted, the rule behind the calls is not given here.

As for `O=C1NC(=S)S/C1=C\c1cnc2ccccc2n1`, the inhibition entry in the assay filed under Homo sapiens and at Dynamin-1 (Homo sapiens) was “inactive” each time. Further, in assay [1], the IC50 (as a rule, the midpoint of a concentration-inhibition curve) stood at 43 µM.
With `O=C(O)CCN1C(=O)/C(=C/c2csc3ccc(Cl)cc23)SC1=S`, the inhibition entry in the assay filed under Homo sapiens and on Dynamin-1 (Homo sapiens) was “inactive” in each case. Also, in assay [1], half-maximal inhibition (IC50) required 48 µM.
For the compound `O=C(O)CCN1C(=O)/C(=C/c2cc(Cl)cc(Cl)c2)SC1=S`, the inhibition result in the assay filed under Homo sapiens and at Dynamin-1 (Homo sapiens) was “inactive” throughout. The IC50 in assay [1] was found to be 4.4 µM.

The values above are taken from ChEMBL document CHEMBL2062444, “The Rhodadyns, a New Class of Small Molecule Inhibitors of Dynamin GTPase Activity” (ACS Med Chem Lett, 2012).
